Reference: PubChem BioAssay (NCI)
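Tested at 5 concentrations; 48 h exposure; 96-well plates; endpoints linearly interpolated, else capped at highest concentration. GI50 is the concentration that inhibits growth by half. Definition used: TGI = concentration required for complete inhibition of growth.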

Assays:
Assay in all cases: growth of human tumour cells (NCI), 48 h
[1] = tested on: UACC-62 melanoma
[2] = tested on: NCI-H522 lung
[3] = tested on: CCRF-CEM leukemia
[4] = tested on: MCF7 breast
[5] = tested on: SN12C renal
[6] = tested on: NCI/ADR-RES ovarian
[7] = tested on: SK-MEL-5 melanoma
[8] = tested on: OVCAR-4 ovarian
[9] = tested on: TK-10 renal
[10] = tested on: DU-145 prostate

Compound	GI50 [1]	TGI [1]	GI50 [2]	TGI [2]	GI50 [3]	TGI [3]	GI50 [4]	TGI [4]	GI50 [5]	TGI [5]	GI50 [6]	TGI [6]	GI50 [7]	TGI [7]	GI50 [8]	TGI [8]	GI50 [9]	TGI [9]	GI50 [10]	TGI [10]
O=S(=O)(O)c1ccc(Cl)cc1.[Cd]	13.8 µM	28 µM	1.99 µM	6.79 µM	24.9 µM	85.4 µM	34.6 µM	> 100 µM	> 100 µM	> 100 µM	> 100 µM	> 100 µM	4.58 µM	16.9 µM	51.9 µM	> 100 µM	> 100 µM	> 100 µM	67.3 µM	> 100 µM
CCOC(=O)C1=C(N)Oc2c(sc3c(C)cccc23)C1c1ccc(Cl)cc1 (centres undefined)	1.08 µM	13.3 µM	1.22 µM	6.28 µM	3.65 µM	24.1 µM	0.655 µM	10.9 µM	3.97 µM	16.1 µM	0.952 µM	7.18 µM	4.04 µM	14.4 µM	6.92 µM	21 µM	12.6 µM	29.1 µM	3.89 µM	14.1 µM
CC(=O)Oc1ccc2ccc(=O)oc2c1OC(C)=O	–	> 100 µM	–	> 100 µM	–	46.1 µM	–	> 100 µM	–	> 100 µM	–	> 100 µM	–	94.2 µM	–	> 100 µM	–	> 100 µM	–	> 100 µM
CN(CCCCCl)P(=O)(OCc1ccc([N+](=O)[O-])o1)C(F)(F)c1ccc(CC(=O)N[C@@H](CC(=O)O)C(=O)N[C@@H](Cc2ccc(C(F)(F)P(=O)(OCc3ccc([N+](=O)[O-])o3)N(C)CCCCCl)cc2)C(N)=O)cc1 (some centres undefined)	58 µM	> 100 µM	35.7 µM	> 100 µM	30.2 µM	> 100 µM	32.8 µM	> 100 µM	> 100 µM	> 100 µM	> 100 µM	> 100 µM	43.8 µM	> 100 µM	39.1 µM	> 100 µM	76.1 µM	> 100 µM	85.8 µM	> 100 µM
Nc1ccccc1/C=N\Nc1ccccc1	0.353 µM	> 100 µM	> 100 µM	> 100 µM	0.431 µM	> 100 µM	8.92 µM	> 100 µM	> 100 µM	> 100 µM	5.8 µM	> 100 µM	2.69 µM	7.98 µM	3.91 µM	> 100 µM	> 100 µM	> 100 µM	> 100 µM	> 100 µM
CCCCCCCCCCCCOC1C(CNC(=O)C2OC3OC(C)(C)OC3C2NC(=O)CN2CCN(c3ccccn3)CC2)OC2OC(C)(C)OC21 (centres undefined)	1.61 µM	3.05 µM	1.66 µM	3.2 µM	2.5 µM	5.5 µM	1.94 µM	4.58 µM	1.75 µM	3.24 µM	2.64 µM	7.39 µM	1.7 µM	3.09 µM	2.52 µM	7.7 µM	1.76 µM	3.27 µM	1.68 µM	3.04 µM
CC1(C)CC(=O)C(C(c2cccc(O)c2O)C2C(=O)CC(C)(C)CC2=O)C(=O)C1	–	> 100 µM	–	> 100 µM	–	> 100 µM	–	> 100 µM	–	> 100 µM	–	> 100 µM	–	> 100 µM	–	> 100 µM	–	> 100 µM	–	> 100 µM
C[N+](C)(C)CCC(=O)N1C/C(=C\c2ccccc2)C(=O)/C(=C/c2ccccc2)C1	–	10.3 µM	–	5.42 µM	–	7.05 µM	–	3.31 µM	–	4.59 µM	–	3.3 µM	–	22.6 µM	–	9.79 µM	–	23.6 µM	–	30.6 µM
C/C(=N\Nc1ccc2ccccc2n1)c1ccccc1O	–	> 100 µM	–	> 100 µM	–	> 29.4 µM	–	> 100 µM	–	> 100 µM	–	> 100 µM	–	> 100 µM	–	> 100 µM	–	> 100 µM	–	> 100 µM
Cc1ccc(Cl)cc1Nc1nc(C(F)(F)F)ccc1C(=O)N/N=C/c1c(Cl)cccc1Cl	0.925 µM	4.02 µM	1.77 µM	5.98 µM	0.289 µM	1.56 µM	1.74 µM	> 38.1 µM	1.2 µM	12.2 µM	0.522 µM	6.77 µM	1.52 µM	3.82 µM	0.289 µM	–	1.4 µM	7.39 µM	1.21 µM	> 100 µM
O=C(CCCCCCC(=O)N/N=C/c1ccc(N(c2ccccc2)c2ccccc2)cc1)NO	0.445 µM	1.98 µM	1.92 µM	6.92 µM	2.64 µM	16.4 µM	0.601 µM	11.3 µM	2.94 µM	13.5 µM	3.07 µM	20.5 µM	1.76 µM	3.63 µM	1.65 µM	8.72 µM	0.314 µM	1.86 µM	2.43 µM	8.13 µM
CCCN(CCC)c1ccc(C=O)cc1	42.8 µM	> 100 µM	28 µM	> 100 µM	30.2 µM	> 100 µM	36 µM	> 100 µM	> 96.2 µM	> 100 µM	56.3 µM	> 100 µM	20.7 µM	54.5 µM	26.5 µM	> 100 µM	37.5 µM	> 100 µM	46.7 µM	> 100 µM
CCOC(=O)c1c[nH]c2c(OCc3ccccc3)c3ccccc3c(O)c2c1=O	3.1 µM	15.8 µM	13.3 µM	> 83.9 µM	5.73 µM	> 100 µM	9.55 µM	> 67.4 µM	22.2 µM	> 100 µM	10.9 µM	> 64.7 µM	2.55 µM	7.52 µM	54.3 µM	> 100 µM	16 µM	45.5 µM	12.1 µM	> 74.2 µM
Nc1ncnc2c1c(-c1cccc(OCc3ccccc3)c1)cn2C1CC(CN2CCCC2)C1 (centres undefined)	1.84 µM	3.78 µM	1.95 µM	3.73 µM	2.51 µM	6.66 µM	0.141 µM	2 µM	3.09 µM	14.5 µM	5.01 µM	21.5 µM	1.39 µM	2.76 µM	1.86 µM	6.59 µM	1.84 µM	5.05 µM	4 µM	16.9 µM
